The source of these data is patent publication US11779565B2, “Small organic molecules for use in the treatment of neuroinflammatory disorders” (THE MEDICAL RESEARCH, INFRASTRUCTURE AND HEALTH SERVICES …, priority 2017, dated 2023).

As usually defined, the IC50 is the midpoint of a concentration-inhibition curve. Higher therefore signals weaker potency.

One test relates to P19 cells. Nature of the test: In vitro differentiation assay of P19 cells (MAP-2 positive neurons). Format: cell-based, murine. To be noted: RA stimulation alone (5×10^−7 M), day 8. The method, then: P19 cells were grown in a-minimum essential medium (aMEM) (Gibco) containing 7.5% calf serum, 2.5% fetal calf serum, and 0.4 μl/ml penicillin—streptomycin (Gibco), at 37° C., 5% CO2. Cells were replenished with fresh medium every 48 h.
The medium, including RA, BMP supplements and SMs, was replenished after 48 h. After 4 days, aggregates which formed during RA treatment were dispersed enzymatically (0.05% v/v trypsin-0.02% v/v EDTA) and mechanically and plated in tissue culture grade dishes. At this stage, cells were cultured in RA-, BMP- and SM-free medium, which was refreshed every 48 h. MAP-2 positive neurons were examined at day 8 (i.e., day 4 post-RA treatment) by immunofluorescence. Briefly, at day 7, cells were re-cultured in 24 well-plates with cover slips at a final concentration of 5×10^4 cells/well. On day 8, cells were washed with PBS, fixed with PFA 4% for 15 min, permeabilized with 0.5% Triton Tx, blocked with 10% FCS, 0.1% BSA and 0.05% Tween for 30 min, and stained with MAP2 rabbit mAb (1:100, D5G1, Cell Signaling) for 1 hr. The second antibody step was performed by labeling with Alexa Fluor® 488-conjugated IgG antibody to rabbit for 1 h (1:1000; Molecular Probes USA).
Next, the effect of the small molecules on neurogenesis in a P19 differentiation model was measured. […] Neuronal differentiation is marked by the expression of the neuronal marker MAP-2, while the addition of BMP-2 reduces the levels of this marker. Addition of the murine anti-BMP-2/4 monoclonal antibody reverses the effect of BMP-2 and induces acquisition of neuronal phenotype. Thus, the effect of SM1, SM7 and SM9 on the expression of the neuronal marker MAP-2 in P19 cells was examined in the presence of RA and BMP-2. Three concentrations of the molecules were tested: 0.625 μM, 1.25 μM and 2.5 μM.

In the next test the target is T1, BMP-2 (Homo sapiens, UniProt P12643).
T1 construct: purchased R&D Systems
T1 sequence (P12643 283-396): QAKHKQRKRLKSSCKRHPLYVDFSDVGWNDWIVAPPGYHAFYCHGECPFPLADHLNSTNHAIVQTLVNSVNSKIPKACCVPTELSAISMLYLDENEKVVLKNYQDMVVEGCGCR
As to the kind of experiment: ATDC5 cell based HTS bioassay: ALP production stimulated by BMP-2 and heparin. The arrangement: species or system mouse. The conditions noted are these: inhibition of BMP-2-stimulated ALP in ATDC5 cells, 48 hours, tested at 0.62-10 μM. The method, then:
Poly-L-lysine (Sigma-Aldrich) was added to 384-well plates and was removed after 30 min of incubation at RT. An assay medium containing DMEM/F12, 2% FBS, 100 units/ml penicillin, […] streptomycin (Biological industries) was added to each well. […] ATDC5 cells (Sigma-Aldrich) were harvested, re-suspended in assay medium and added to a final concentration of 2000 cells/well. Finally, heparin (Sigma-Aldrich) was added to a final concentration of 2 μg/ml. The cells were incubated for 48 hours at 37° C. with 5% CO2 in a humidified chamber in the presence or absence of potential small molecule inhibitors of BPM-2. After incubation, ALP levels and cell viability were determined using a completely automated protocol. Cells were washed with PBS, lysed using a lysis buffer containing 0.2% Triton X-100 in PBS supplemented with a protease inhibitor cocktail (Sigma-Aldrich) and incubated for 25 min at RT. ALP level was then determined by addition of CDP-Star® chemiluminescent substrate (Sigma-Aldrich) and measurement of luminescence after incubation for 25 min at RT in the dark. Cell viability was finally determined by addition of CellTiter-Glo® reagent (Biological Industries) and luminescence measurement after 10 min of incubation.
An ATDC5 cell based assay for assessing structure-function relationship of BMP-2 and BMP receptor IA was originally described in Keller et al (Nature Structural & Molecular Biology 2004 11, 481-488). In order to screen a large volume of potential therapeutic agents the ATDC5 cell based bioassay for detecting BMP inhibition was adapted for use in high throughput screening. The bioassay is based on the stimulation of alkaline phosphatase (ALP) production in mouse ATDC5 cells by administration of BMP-2 and heparin, and measurement of ALP levels in the presence of the potential inhibitors. […] This was achieved by using CellTiter-Glo® Luminescent Cell Viability Assay for assessing the cells' viability after the luminescent signal by CDP-Star® has faded. The simultaneous assessment of both ALP production and cells' viability was necessary since potentially toxic tested small molecules may lead to reduced ALP levels by cellular cytotoxicity rather than by interference with BMP-2 signaling. […] Particulars of the bioassay are detailed in the Experimental procedures section above.
A library of small molecules (SM) was screened using the High Throughput Screening bioassay described above. About 7600 SMs were screened, from the Maybridge library, which consists of organic “drug-like” compounds, using the pre-plated HitFinder™ Collection. […] The SM were tested at various concentrations, i.e. at 0.62 μM, 1.25 μM, 2.5 μM, 5 μM and 10 μM.

As for `CC1=C(/C=C/C(C)=C/C=C/C(C)=C/C(=O)O)C(C)(C)CCC1` [RA, all-trans-retinoic acid, reference compound], the “MAP-2+ cells” value in the test on P19 cells was found to be 73.8±6.5%.
`c1ccc(C2=NNC(c3ccccc3)=NN2)cc1` [SM2, 1,4-Dihydro-3,6-diphenyl-1,2,4,5-tetrazine] gave an IC50 against BMP-2 of 8.5 µM. That is a single-digit micromolar value.
The same measure, in the same setting: as for `CCOC(=O)c1c(NC(=O)c2ccc([N+](=O)[O-])o2)nc(SC)n1Cc1cccs1` [SM3], the figure is 2.6 µM; as for `O=C1c2cccc3cc([N+](=O)[O-])cc(c23)C(=O)N1c1ccc(S(=O)(=O)Nc2ccc(C(F)(F)F)cc2)cc1` [SM4, 4-(5-nitro-1,3-dioxobenzo(de)isoquinolin-2-yl)-N-[4-(trifluoromethyl)phenyl]benzenesulfonamide], 10 µM; as for `CC(=O)NC(=O)CCSc1ccccc1C(=O)NC(C)=O` [SM5, N1-acetyl-2-([3-(acetylamino)-3-oxopropyl]thio)benzamide], 3.8 µM.
The same measure, in the same setting: as for `C/C(=N\NC(=S)NC(C)(C)C)c1ccc(Oc2c(Cl)cncc2Cl)cc1` [SM8, 1-tert-butyl-3-[E-1-(4-(3,5-dichloropyridin-4-yl)oxyphenyl]ethylideneamino)thiourea], the figure is 2.8 µM.
